This note sets out measurements from PubChem BioAssay (NCI).

Molecules are shown by their SMILES.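 Dose response: 5 concentrations. Exposure: 48 h. Format: 96-well plates. Endpoint: linear interpolation; highest concentration if not reached. GI50: concentration for 50% inhibition of growth. TGI is the concentration that stops growth completely.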

Some test systems named below: MCF7 breast; MDA-MB-231 breast; UACC-62 melanoma; T-47D breast; UO-31 renal; BT-549 breast; HT29 colon; EKVX NSCLC.
Common to all, as to experiment: DTP human tumour cell line panel, 48 h

One may read the GI50 as the concentration that inhibits growth by half. In general, TGI refers to the concentration giving total growth inhibition. The low end stands for greater sensitivity of the cells, the high end for lower sensitivity of the cells. Regarding `COC(=O)c1ccc2c(c1)C(=O)c1c-2n(CCCCl)c(=O)c2cc([N+](=O)[O-])ccc12`, the GI50 is 52 µM in the experiment on MCF7 breast; more than 100 µM in the experiment with MDA-MB-231 breast; 27.5 µM in the experiment on UACC-62 melanoma; 92 µM with T-47D breast; 49.1 µM with UO-31 renal; 44.4 µM in the experiment with BT-549 breast. The GI50 in the experiment with HT29 colon was 76.8 µM; with EKVX NSCLC, more than 100 µM. The TGI with MCF7 breast, in the experiment on MDA-MB-231 breast, in the experiment with UACC-62 melanoma, with T-47D breast, in the experiment with UO-31 renal and in the experiment with BT-549 breast was more than 100 µM throughout. In addition, the TGI in the experiment on HT29 colon and with EKVX NSCLC was more than 100 µM each time.
For `CO[C@H]1C=CO[C@@]2(C)Oc3c(C)c(O)c4c(O)c(c(CN5CCN(C)CC5)c(O)c4c3C2=O)NC(=O)/C(C)=C\C=C[C@H](C)[C@H](O)C(C)[C@@H](O)C(C)[C@H](OC(C)=O)[C@@H]1C` (stereo partly specified), the TGI was 33.7 µM in the experiment with MCF7 breast; more than 100 µM in the experiment on MDA-MB-231 breast; more than 100 µM in the experiment on UACC-62 melanoma; more than 100 µM in the experiment on T-47D breast; more than 94.4 µM in the experiment with UO-31 renal; more than 100 µM in the experiment on BT-549 breast. For the same compound, the concentration for total growth inhibition (TGI) in the experiment on HT29 colon and in the experiment with EKVX NSCLC was more than 100 µM each time.
Turning to `CC/C=C\C[C@H](F)C/C=C1/C(=O)C=C[C@@H]1C/C=C\CCCC(=O)OC`, the GI50 is 1.02 µM in the experiment on MCF7 breast; 1.91 µM in the experiment with MDA-MB-231 breast; 0.948 µM in the experiment on UACC-62 melanoma; 1.42 µM with T-47D breast; 2.13 µM in the experiment with UO-31 renal; 1.5 µM with BT-549 breast. Besides, the GI50 with HT29 colon is 1.69 µM; in the experiment on EKVX NSCLC, 5.17 µM. The TGI in the experiment with MCF7 breast was determined as 7.05 µM; in the experiment with MDA-MB-231 breast, 6.7 µM; in the experiment on UACC-62 melanoma, 2.1 µM; in the experiment with T-47D breast it was 5.57 µM; in the experiment with UO-31 renal, 9.72 µM; in the experiment with BT-549 breast, 4.15 µM. For the same compound, the TGI amounted to 4.67 µM in the experiment on HT29 colon and 12 µM in the experiment with EKVX NSCLC.
For the compound `CN(C)CCCN(CCC1CCCCC1)CCC1CCCCC1`, the GI50 in the experiment on MCF7 breast is 1.32 µM; with MDA-MB-231 breast it was 1.62 µM; in the experiment on UACC-62 melanoma, 1.79 µM; in the experiment with T-47D breast, 1.57 µM; in the experiment with UO-31 renal it was 1.38 µM; in the experiment on BT-549 breast, 7.74 µM. In addition, the results for the GI50 in the experiment with HT29 colon and in the experiment with EKVX NSCLC were 0.73 µM and 5.68 µM, respectively. Further, the TGI in the experiment with MCF7 breast stood at 2.62 µM; with MDA-MB-231 breast, 3.97 µM; in the experiment on UACC-62 melanoma, 3.35 µM; in the experiment with T-47D breast, 3.52 µM; with UO-31 renal, 4.24 µM; in the experiment on BT-549 breast, 22.2 µM. The values for the TGI with HT29 colon and with EKVX NSCLC were 6.81 µM and 18.8 µM, respectively.
For `Cc1ccc2oc(=O)cc(/C(=C3/C=CC=N3)c3ccc[nH]3)c2c1`, the GI50 was 0.348 µM with MCF7 breast; 0.802 µM in the experiment with MDA-MB-231 breast; 0.373 µM in the experiment on UACC-62 melanoma; 0.445 µM in the experiment with T-47D breast; 0.45 µM in the experiment on UO-31 renal; 0.346 µM with BT-549 breast. Also, the GI50 is 0.349 µM in the experiment with HT29 colon and 0.435 µM in the experiment on EKVX NSCLC. In addition, the TGI in the experiment with MCF7 breast stood at 4.23 µM; in the experiment with MDA-MB-231 breast, 3.07 µM; in the experiment on UACC-62 melanoma it was 1.98 µM; in the experiment on T-47D breast, 7.66 µM; in the experiment with UO-31 renal it was 5.11 µM; in the experiment with BT-549 breast, 1.58 µM. Moreover, the values for the TGI in the experiment with HT29 colon and with EKVX NSCLC were 1.42 µM and 4.51 µM, respectively.
Turning to `C=C1CC2(CC(c3ccccc3Cl)OC(c3ccccc3Cl)C2)OC1=O` (stereo unspecified), the TGI is 5 µM in the experiment on MCF7 breast; 3.45 µM with MDA-MB-231 breast; 4.68 µM in the experiment with UACC-62 melanoma; 3.22 µM in the experiment on T-47D breast; 11.7 µM in the experiment with UO-31 renal; 4.59 µM in the experiment with BT-549 breast. The TGI in the experiment on HT29 colon amounted to 6.68 µM; in the experiment on EKVX NSCLC, 15.2 µM.
Regarding `COc1cc(Oc2c(C)c(Cl)c(OC)c(Cl)c2OC)c2c(c1Cl)COC2=O`, the TGI is 86.2 µM with MCF7 breast; more than 100 µM in the experiment with MDA-MB-231 breast; more than 100 µM with UACC-62 melanoma; more than 100 µM in the experiment with T-47D breast; more than 100 µM with UO-31 renal; more than 100 µM with BT-549 breast. For the same compound, the total growth inhibition concentration (TGI) with HT29 colon and in the experiment on EKVX NSCLC was more than 100 µM in each case.
As to `CC(=O)OC1CCC2(C)C(CCC3C2CC(=O)C2(C)C3CC(N3CC3)C2C(C)=O)C1` (stereo unspecified), the TGI with MCF7 breast was found to be 47.1 µM; in the experiment on MDA-MB-231 breast, 38.1 µM; with UACC-62 melanoma it was 36.5 µM; in the experiment on T-47D breast, 65.2 µM; in the experiment with UO-31 renal, 46.4 µM; with BT-549 breast, 40.1 µM. For the same compound, the results for the TGI in the experiment on HT29 colon and in the experiment on EKVX NSCLC were more than 100 µM and 40.9 µM, respectively.
For the compound `CC(=O)/C(=C/c1ccccc1)C(=O)CC(C)C`, the GI50 was 4.5 µM in the experiment with MCF7 breast; 18.2 µM in the experiment with MDA-MB-231 breast; 6.54 µM in the experiment with UACC-62 melanoma; 24 µM in the experiment on T-47D breast; 10.5 µM in the experiment on UO-31 renal; 14.9 µM in the experiment with BT-549 breast. Also, the results for the GI50 with HT29 colon and with EKVX NSCLC were 3.8 µM and 17.3 µM, respectively. Also, the TGI in the experiment on MCF7 breast came out at 18.5 µM; in the experiment on MDA-MB-231 breast it was 41.1 µM; with UACC-62 melanoma, 20.9 µM; in the experiment with T-47D breast, 91.9 µM; with UO-31 renal, 22.6 µM; in the experiment with BT-549 breast it was 28.9 µM. Besides, the TGI in the experiment on HT29 colon is 12.8 µM; in the experiment on EKVX NSCLC, 40.9 µM.
As for `Cc1nc2c(c(N3CCCc4ccccc43)n1)CCC2`, the GI50 was 0.0228 µM in the experiment on MCF7 breast; 0.0137 µM in the experiment with MDA-MB-231 breast; less than 0.01 µM in the experiment on UACC-62 melanoma; 30.7 µM with T-47D breast; less than 0.01 µM in the experiment on UO-31 renal; less than 0.01 µM in the experiment with BT-549 breast. Besides, the GI50 in the experiment with HT29 colon and in the experiment on EKVX NSCLC was less than 0.01 µM each time. Besides, the TGI in the experiment with MCF7 breast was more than 100 µM; in the experiment on MDA-MB-231 breast it was more than 100 µM; in the experiment with UACC-62 melanoma it was more than 100 µM; in the experiment on T-47D breast it was more than 100 µM; with UO-31 renal it was more than 100 µM; in the experiment on BT-549 breast, 19.6 µM. The TGI was 0.0131 µM in the experiment on HT29 colon and more than 100 µM in the experiment on EKVX NSCLC.
Regarding `CC(C)N1CCN(c2ccncc2S(=O)(=O)N2CCCCC2)CC1`, the TGI in the experiment on MCF7 breast, with MDA-MB-231 breast, in the experiment on UACC-62 melanoma, in the experiment on T-47D breast, in the experiment with UO-31 renal and with BT-549 breast was more than 100 µM each time. The total growth inhibition concentration (TGI) in the experiment on HT29 colon and in the experiment with EKVX NSCLC was more than 100 µM each time.
